# Measured values: PubChem BioAssay AID1963436 (Molecular Pharmacology Branch, DTP, NCI, 2024)
# Test system: OVCAR-5 complex spheroid (HUVEC/MSC), viability % T/C
# Assay: Anticancer human tumor OVCAR-5 cell line growth inhibition [Asc];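 further: spheroids exposed to agents for 7 days before readout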;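 on viability, T/C: 100% = DMSO vehicle-treated wells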
# Conditions: for IC50: curve of first compound; for viability, T/C: stronger effect = lower value
# Outline: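 Tumor cells were grown as multicellular spheroids with stromal HUVEC and mesenchymal stem cells and treated singly or in combination. Concentrations fell in half-log steps from the clinical Cmax, or from 10 microM where none was known.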
# [1] = second compound 0.01 µM, first compound 0.0316 µM
# [2] = second compound 0.01 µM, first compound 0.1 µM
# [3] = second compound 0.01 µM, first compound 0.316 µM
# [4] = second compound 0.01 µM, first compound 1 µM
# [5] = second compound 0.01 µM, first compound 3.16 µM
# [6] = second compound 0.01 µM, first compound 10 µM
# [7] = second compound 0.0316 µM, first compound 0.0316 µM
# [8] = second compound 0.0316 µM, first compound 0.1 µM
# [9] = second compound 0.0316 µM, first compound 0.316 µM
# [10] = second compound 0.0316 µM, first compound 1 µM
# [11] = second compound 0.0316 µM, first compound 3.16 µM
# [12] = second compound 0.0316 µM, first compound 10 µM
# [13] = second compound 0.1 µM, first compound 0.0316 µM
# [14] = second compound 0.1 µM, first compound 0.1 µM
# [15] = second compound 0.1 µM, first compound 0.316 µM
# [16] = second compound 0.1 µM, first compound 1 µM
# [17] = second compound 0.1 µM, first compound 3.16 µM
# [18] = second compound 0.1 µM, first compound 10 µM
# [19] = second compound 0.316 µM, first compound 0.0316 µM
# [20] = second compound 0.316 µM, first compound 0.1 µM
# [21] = second compound 0.316 µM, first compound 0.316 µM
# [22] = second compound 0.316 µM, first compound 1 µM
# [23] = second compound 0.316 µM, first compound 3.16 µM
# [24] = second compound 0.316 µM, first compound 10 µM
# [25] = second compound 1 µM, first compound 0.0316 µM
# [26] = second compound 1 µM, first compound 0.1 µM
# [27] = second compound 1 µM, first compound 0.316 µM
# [28] = second compound 1 µM, first compound 1 µM
# [29] = second compound 1 µM, first compound 3.16 µM
# [30] = second compound 1 µM, first compound 10 µM
smiles,measurement,setting,value
C#Cc1c(F)ccc2cc(O)cc(-c3ncc4c(N5CC6CCC(C5)N6)nc(OCC56CCCN5CC(F)C6)nc4c3F)c12 (stereo not given) + CNC(C)C(=O)NC1CN(S(=O)(=O)c2cccc(S(=O)(=O)N3CCC4CCC(C(=O)NC(c5ccccc5)c5ccccc5)N4C(=O)C(NC(=O)C(C)NC)C3)c2)CCC2CCC(C(=O)NC(c3ccccc3)c3ccccc3)N2C1=O,IC50,second compound 0.01 µM,6.86 µM
same,IC50,second compound 0.0316 µM,6.23 µM
same,IC50,second compound 0.1 µM,5.08 µM
same,IC50,second compound 0.316 µM,4.98 µM
same,IC50,second compound 1 µM,5.11 µM
same,"viability, T/C",[1],97%
same,"viability, T/C",[2],99.1%
same,"viability, T/C",[3],95.8%
same,"viability, T/C",[4],84.2%
same,"viability, T/C",[5],70.8%
same,"viability, T/C",[6],40.2%
same,"viability, T/C",[7],90.2%
same,"viability, T/C",[8],88.1%
same,"viability, T/C",[9],91.8%
same,"viability, T/C",[10],68.5%
same,"viability, T/C",[11],66.5%
same,"viability, T/C",[12],40.3%
same,"viability, T/C",[13],84.9%
same,"viability, T/C",[14],89.5%
same,"viability, T/C",[15],76.2%
same,"viability, T/C",[16],64.8%
same,"viability, T/C",[17],63.6%
same,"viability, T/C",[18],37%
same,"viability, T/C",[19],84.5%
same,"viability, T/C",[20],84.2%
same,"viability, T/C",[21],75.3%
same,"viability, T/C",[22],65.9%
same,"viability, T/C",[23],61.2%
same,"viability, T/C",[24],37.8%
same,"viability, T/C",[25],93.3%
same,"viability, T/C",[26],95.2%
same,"viability, T/C",[27],76.1%
same,"viability, T/C",[28],71%
same,"viability, T/C",[29],65%
same,"viability, T/C",[30],35.2%
C=C(F)C(=O)N1CCN(c2nc(OCC3CCCN3C)nc3c2CCN(c2cccc4cccc(Cl)c24)C3)CC1CC#N (stereo not given) + CNC(C)C(=O)NC1CN(S(=O)(=O)c2cccc(S(=O)(=O)N3CCC4CCC(C(=O)NC(c5ccccc5)c5ccccc5)N4C(=O)C(NC(=O)C(C)NC)C3)c2)CCC2CCC(C(=O)NC(c3ccccc3)c3ccccc3)N2C1=O,IC50,second compound 0.01 µM,1.32 µM
same,IC50,second compound 0.0316 µM,1.15 µM
same,IC50,second compound 0.1 µM,0.968 µM
same,IC50,second compound 0.316 µM,0.844 µM
same,IC50,second compound 1 µM,0.74 µM
same,"viability, T/C",[1],105%
same,"viability, T/C",[2],93.5%
same,"viability, T/C",[3],82.5%
same,"viability, T/C",[4],66.2%
same,"viability, T/C",[5],11.3%
same,"viability, T/C",[6],0.22%
same,"viability, T/C",[7],94.4%
same,"viability, T/C",[8],78.9%
same,"viability, T/C",[9],79%
same,"viability, T/C",[10],56.7%
same,"viability, T/C",[11],11.6%
same,"viability, T/C",[12],0.16%
same,"viability, T/C",[13],92%
same,"viability, T/C",[14],84%
same,"viability, T/C",[15],76.9%
same,"viability, T/C",[16],51.2%
same,"viability, T/C",[17],10.4%
same,"viability, T/C",[18],0.18%
same,"viability, T/C",[19],90.5%
same,"viability, T/C",[20],79.2%
same,"viability, T/C",[21],70.4%
same,"viability, T/C",[22],50.3%
same,"viability, T/C",[23],9.19%
same,"viability, T/C",[24],0.16%
same,"viability, T/C",[25],90.3%
same,"viability, T/C",[26],89.5%
same,"viability, T/C",[27],67%
same,"viability, T/C",[28],46.5%
same,"viability, T/C",[29],10.2%
same,"viability, T/C",[30],0.23%
Cc1nc(N2CCC3(CC2)COC(C)C3N)c(CO)nc1Sc1ccnc(N)c1Cl (stereo not given) + CNC(C)C(=O)NC1CN(S(=O)(=O)c2cccc(S(=O)(=O)N3CCC4CCC(C(=O)NC(c5ccccc5)c5ccccc5)N4C(=O)C(NC(=O)C(C)NC)C3)c2)CCC2CCC(C(=O)NC(c3ccccc3)c3ccccc3)N2C1=O,IC50,second compound 0.01 µM,> 3 µM
same,IC50,second compound 0.0316 µM,> 3 µM
same,IC50,second compound 0.1 µM,> 3 µM
same,IC50,second compound 0.316 µM,> 3 µM
same,IC50,second compound 1 µM,2.51 µM
same,"viability, T/C","second compound 0.01 µM, first compound 0.00949 µM",98.5%
same,"viability, T/C","second compound 0.01 µM, first compound 0.03 µM",91%
same,"viability, T/C","second compound 0.01 µM, first compound 0.0949 µM",85%
same,"viability, T/C","second compound 0.01 µM, first compound 0.3 µM",77.7%
same,"viability, T/C","second compound 0.01 µM, first compound 0.949 µM",68.3%
same,"viability, T/C","second compound 0.01 µM, first compound 3 µM",63.8%
same,"viability, T/C","second compound 0.0316 µM, first compound 0.00949 µM",84.5%
same,"viability, T/C","second compound 0.0316 µM, first compound 0.03 µM",92.3%
same,"viability, T/C","second compound 0.0316 µM, first compound 0.0949 µM",76.1%
same,"viability, T/C","second compound 0.0316 µM, first compound 0.3 µM",66.7%
same,"viability, T/C","second compound 0.0316 µM, first compound 0.949 µM",63.2%
same,"viability, T/C","second compound 0.0316 µM, first compound 3 µM",56.2%
same,"viability, T/C","second compound 0.1 µM, first compound 0.00949 µM",84%
same,"viability, T/C","second compound 0.1 µM, first compound 0.03 µM",82.3%
same,"viability, T/C","second compound 0.1 µM, first compound 0.0949 µM",76.7%
same,"viability, T/C","second compound 0.1 µM, first compound 0.3 µM",61.4%
same,"viability, T/C","second compound 0.1 µM, first compound 0.949 µM",58.8%
same,"viability, T/C","second compound 0.1 µM, first compound 3 µM",52.1%
same,"viability, T/C","second compound 0.316 µM, first compound 0.00949 µM",82.7%
same,"viability, T/C","second compound 0.316 µM, first compound 0.03 µM",74.6%
same,"viability, T/C","second compound 0.316 µM, first compound 0.0949 µM",64.4%
same,"viability, T/C","second compound 0.316 µM, first compound 0.3 µM",62.1%
same,"viability, T/C","second compound 0.316 µM, first compound 0.949 µM",51.9%
same,"viability, T/C","second compound 0.316 µM, first compound 3 µM",55.2%
same,"viability, T/C","second compound 1 µM, first compound 0.00949 µM",82.7%
same,"viability, T/C","second compound 1 µM, first compound 0.03 µM",80.8%
same,"viability, T/C","second compound 1 µM, first compound 0.0949 µM",71.7%
same,"viability, T/C","second compound 1 µM, first compound 0.3 µM",64.4%
same,"viability, T/C","second compound 1 µM, first compound 0.949 µM",60.2%
same,"viability, T/C","second compound 1 µM, first compound 3 µM",47.7%
O=C(c1cc(Cc2n[nH]c(=O)c3ccccc23)ccc1F)N1CCN(C(=O)C2CC2)CC1 + Cc1c(S(C)(=O)=O)c(-c2cc(F)cc(N3CCN(c4ccc(NS(=O)(=O)c5ccc(NC(CCN6CCC(C(=O)OCCCP(=O)(O)O)CC6)CSc6ccccc6)c(S(=O)(=O)C(F)(F)F)c5)cc4)CC3)c2)c(-c2ccc(Cl)cc2)n1C(C)C,IC50,second compound 0.1 µM,> 10 µM
same,IC50,second compound 0.316 µM,> 10 µM
same,IC50,second compound 1 µM,> 10 µM
same,IC50,second compound 3.16 µM,> 10 µM
same,IC50,second compound 10 µM,> 10 µM
same,"viability, T/C",[13],103%
same,"viability, T/C",[14],101%
same,"viability, T/C",[15],90.8%
same,"viability, T/C",[16],82.6%
same,"viability, T/C",[17],91.5%
same,"viability, T/C",[18],76.1%
same,"viability, T/C",[19],95.8%
same,"viability, T/C",[20],95.6%
same,"viability, T/C",[21],84.8%
same,"viability, T/C",[22],79.6%
same,"viability, T/C",[23],83.6%
same,"viability, T/C",[24],78.5%
same,"viability, T/C",[25],92.2%
same,"viability, T/C",[26],89.8%
same,"viability, T/C",[27],88%
same,"viability, T/C",[28],81.4%
same,"viability, T/C",[29],78.4%
same,"viability, T/C",[30],62.6%
same,"viability, T/C","second compound 3.16 µM, first compound 0.0316 µM",86.2%
same,"viability, T/C","second compound 3.16 µM, first compound 0.1 µM",94.1%
same,"viability, T/C","second compound 3.16 µM, first compound 0.316 µM",82.3%
same,"viability, T/C","second compound 3.16 µM, first compound 1 µM",75.4%
same,"viability, T/C","second compound 3.16 µM, first compound 3.16 µM",73.4%
same,"viability, T/C","second compound 3.16 µM, first compound 10 µM",64.7%
same,"viability, T/C","second compound 10 µM, first compound 0.0316 µM",130%
same,"viability, T/C","second compound 10 µM, first compound 0.1 µM",128%
same,"viability, T/C","second compound 10 µM, first compound 0.316 µM",114%
same,"viability, T/C","second compound 10 µM, first compound 1 µM",95.5%
same,"viability, T/C","second compound 10 µM, first compound 3.16 µM",94.1%
same,"viability, T/C","second compound 10 µM, first compound 10 µM",73.6%
